System: plasma thyroid stimulating hormone (TSH)
Test: Administration of MetAP-2 inhibitor to obese subjects: plasma TSH and circulating thyroid hormones
Type: in vivo, human (obese subjects)
Protocol: FIG. 1 depicts the results of administration of a MetAP2 inhibitor to obese patients and indicates the reduction in plasma thyroid stimulating hormone, without reductions in circulating thyroid hormone (free T3 and T4) concentrations.
8 obese subjects who were not taking any thyroid medication were treated with O-(4-dimethylaminoethoxycinnamoyl)fumagillol at a dose of 0.9 mg per square meter of body surface area (approximately 1.8 mg per dose) for 26 days. […] (FIG. 1). This is indicative of improved thyroid hormone sensitivity and a reduction in thyroid hormone resistance.

Structure (SMILES): CO[C@@H]1[C@H](OC(=O)C=Cc2ccc(OCCN(C)C)cc2)CC[C@]2(CO2)[C@H]1[C@@]1(C)O[C@@H]1CC=C(C)C [O-(4-dimethylaminoethoxycinnamoyl)fumagillol]
- plasma thyroid stimulating hormone (TSH) (8 obese subjects not taking thyroid medication, 0.9 mg per square meter of body surface area (approximately 1.8 mg per dose) for 26 days): significant reduction
- circulating thyroid hormone T4 (8 obese subjects, 0.9 mg per square meter of body surface area for 26 days, T4 (FIG. 1)): without a reduction
- circulating thyroid hormone T3 (8 obese subjects, 0.9 mg per square meter of body surface area for 26 days, free T3 (FIG. 1)): without a reduction

From US20140073691A1, “Methods and composition for Treating Thyroid Hormone Related Disorders” (Zafgen, Inc., priority 2010, published 2014)
